In publication PMC4336331, “Novel Receptor-Derived Cyclopeptides to Treat Heart Failure Caused by Anti-β1-Adrenoceptor Antibodies in a Human-Analogous Rat Model” (PLoS ONE, 2015):
Peptide text beside a SMILES is read from it.

Assays:
[1] = tested on: anti-β1EC2-induced heart failure (β1EC2/GST-FP-immunised rats); assay: Echocardiography, catheterisation and histomorphology, prevention-study; type: in vivo, Lewis/CrlBR rats; settings: cardiac catheterisation, histomorphology
Protocol: In brief, n = 76 two months old Lewis/CrlBR rats were either s.c. immunised with 50 μg β1EC2/GST-FP, or n = 38 rats were control-injected with 0.9% NaCl (t = 0). To maintain high anti-β1EC2-titers, all immunised rats were boosted with β1EC2/GST-FP (or 0.9% NaCl) every month over 20 months as previously described. Application of the different linear or cyclic β1-AR peptides (corresponding to the primary AA-sequence of either the first (β1EC1) or the 2nd extra-cellular β1-AR loop (β1EC2)) or the β1-receptor blocker bisoprolol was initiated either 6 weeks after the 1st immunisation (i.e. 15 days after the 1st boost, prevention-study), or 8.5 months after the 1st immunisation (therapy-study).
In brief, the rats were lightly anaestetised (30 mg/kg ketamine-HCl and 5 mg/kg xylazine i.p.), shaved (chest), and placed supine on a special table. M-mode tracings were recorded at baseline (before immunisation), and subsequently every four months in the parasternal long and short axis views according to the guidelines of the American Society for Echocardiography. Pulsed-wave Doppler spectra were recorded from the apical five-chamber view and the velocity-time integral (VTI) of the transaortic flow served to calculate cardiac output (CO [ml/min] = Aortic VTI x (π [LV-outflow tract diameter/2]^2) x bpm).

[2] = tested on: anti-β1EC2-secreting cells; assay: ELISPOT of splenocytes and bone marrow cells; type: in vivo, Lewis/CrlBR rats
Protocol: (b) For ELISPOT assays plates were coated overnight with either 1.8 μg/ml anti-rat IgG (H+L) or the specific antigens (GST/β1EC2-FP or GST alone) in 50 mM Tris-buffer, pH 9.4. The plates were then washed 3 times, blocked with BSA (3h, 37°C), and incubated overnight at 37°C with splenocytes or bone marrow cells from rats treated as indicated in RPMI 1640/X-VIVO-15 medium supplemented with 10% FCS (1x10^3 to 10^6 cells per well). After 12 h the cells were discarded and the plates were washed several times (PBS/0.5% Tween) before an alkaline phosphatase-conjugated secondary anti-rat-IgG antibody (0.3 μg/ml) was added to detect bound rat IgG. After further incubation (3h, 37°C) and washing-steps (3 times PBS/0.5% Tween) the plates were developed using LMP/BCIP 5:1 (1.0 ml per well; LMP, low melting agarose; BCIP, 5-bromo-4-chloro-3-indolyl phosphate p-toluidine salt, a blue-colored dye).
Fig 5 Immunology of cyclic β1EC2-peptides: fate of β1EC2-specific T- and B-cells. (A) Titer-course of anti-β1EC2-abs in β1EC2-CP-treated rats during the first 6 months of the prevention-study before and 24h after cyclopeptide-injection. Time-points of antigen-boosts are indicated by (red) lines, time-points of CP-injections by (green) arrows. For better readability error-bars are not shown in the graph. (B) Pre-experiments (antigenic recall-assays) performed with CD4^+ T-cells prepared from spleens of GST/β1EC2 fusion-protein (FP)-immunised untreated (n = 3, black) vs. 0.9%NaCl-injected control rats (n = 3, white). (C and D) Reactivities of CD4^+ T-cells prepared from (C) preventively or (D) therapeutically β1EC2-CP- (green) or bisoprolol-treated animals (blue) compared to cells prepared from immunised untreated (black) or corresponding 0.9%NaCl-injected control rats (white). Columns ± error bars represent mean T-cell reactivities ±SEM normalized to medium (abbreviations: EC2-CP, cyclopeptide mimicking β1EC2; GST, glutathion-S-transferase; PPD, purified protein derivative; FP, GST/β1EC2 fusion-protein). […]

Compound | development of cardiomyopathy and heart failure, in words [1] | overall numbers of IgG-producing cells, in words ([2]; ELISPOT (Fig. 5F, H, and J)) | frequencies of anti-β1EC2-producing (long-lived) PC, in words ([2]; ELISPOT, splenocytes or bone marrow cells two weeks after the last antigen-boost (Fig. 5E and F)) | reduction in the frequencies of splenocytes secreting anti-β1EC2-abs, in words ([2]; ELISPOT 3 days after antigen-boost (S5A Fig.))
CC(C)NCC(O)COc1ccc(COCCOC(C)C)cc1 (centres unmarked) [bisoprolol, reference compound] | able to prevent development of cardiomyopathy and heart failure |  |  | 
CC(C)[C@@H]1NC(=O)[C@H](Cc2ccccc2)NC(=O)[C@H](CC(=O)O)NC(=O)[C@H](CS)NC(=O)[C@H](CS)NC(=O)[C@H](CCCCN)NC(=O)[C@@H]2CCCN2C(=O)[C@H](CC(=O)O)NC(=O)[C@H](CC(N)=O)NC(=O)[C@H](Cc2ccc(O)cc2)NC(=O)[C@H](CS)NC(=O)[C@H](CCCNC(=N)N)NC(=O)[C@H](CCCNC(=N)N)NC(=O)[C@H](C)NC(=O)[C@H](CCC(=O)O)NC(=O)[C@H](CC(=O)O)NC(=O)[C@H](CO)NC(=O)[C@H](CCC(=O)O)NC(=O)[C@H](C)NC(=O)[C@H](CCCNC(=N)N)NC(=O)[C@H](C)NC(=O)[C@H](CCC(N)=O)NC(=O)CNC(=O)[C@H](CCCNC(=N)N)NC(=O)[C@H](CC(N)=O)NC(=O)[C@H]([C@@H](C)O)NC1=O [β1EC2-CP] (cyclo(AESDEARRCYNDPKCCDFVTNRGQAR)) | able to prevent development of cardiomyopathy and heart failure | not at all affected | did not reduce | 
CC(C)[C@H](NC(=O)[C@H](Cc1ccccc1)NC(=O)[C@H](CC(=O)O)NC(=O)[C@H](CS)NC(=O)[C@H](CS)NC(=O)[C@H](CCCCN)NC(=O)[C@@H]1CCCN1C(=O)[C@H](CC(=O)O)NC(=O)[C@H](CC(N)=O)NC(=O)[C@H](Cc1ccc(O)cc1)NC(=O)[C@H](CS)NC(=O)[C@H](CCCNC(=N)N)NC(=O)[C@H](CCCNC(=N)N)NC(=O)[C@H](C)NC(=O)[C@H](CCC(=O)O)NC(=O)[C@H](CC(=O)O)NC(=O)[C@H](CO)NC(=O)[C@H](CCC(=O)O)NC(=O)[C@H](C)NC(=O)[C@H](CCCNC(=N)N)NC(=O)[C@H](C)N)C(=O)N[C@H](C(=O)N[C@@H](CC(N)=O)C(=O)N[C@@H](CCCNC(=N)N)C(=O)NCC(N)=O)[C@@H](C)O [β1EC2-Lin] (H-ARAESDEARRCYNDPKCCDFVTNRG-NH2; N-terminus and C-terminus assumed) |  |  |  | not achieved
